Reference: patent publication US7811760B2, “Vector and method for detecting the change in transcription amount” (priority 2006, dated 2010)

Key:
[1] = target: T1, aryl hydrocarbon receptor (Rattus norvegicus, UniProt P41738, Q794H); experiment: Reporter gene assay in Neuro2a with pTHE100/Luc, pTHE100×3/Luc and pTHE100×5/Luc (tandem copies of SEQ ID No: 3); type: cell-based, SD-line rat
T1 construct: The SD-line rat AhR gene-coding region was amplified from the reverse-transcribed sample by means of PCR; V5-His (C-terminal tag of vector pcDNA4/V5-His B); expressed in transfected cells; host or cells: mouse neuroblastoma Neuro2a, transient transfection with LIPOFECTAMINE 2000
T1 sequence (P41738 10-853 Q794H): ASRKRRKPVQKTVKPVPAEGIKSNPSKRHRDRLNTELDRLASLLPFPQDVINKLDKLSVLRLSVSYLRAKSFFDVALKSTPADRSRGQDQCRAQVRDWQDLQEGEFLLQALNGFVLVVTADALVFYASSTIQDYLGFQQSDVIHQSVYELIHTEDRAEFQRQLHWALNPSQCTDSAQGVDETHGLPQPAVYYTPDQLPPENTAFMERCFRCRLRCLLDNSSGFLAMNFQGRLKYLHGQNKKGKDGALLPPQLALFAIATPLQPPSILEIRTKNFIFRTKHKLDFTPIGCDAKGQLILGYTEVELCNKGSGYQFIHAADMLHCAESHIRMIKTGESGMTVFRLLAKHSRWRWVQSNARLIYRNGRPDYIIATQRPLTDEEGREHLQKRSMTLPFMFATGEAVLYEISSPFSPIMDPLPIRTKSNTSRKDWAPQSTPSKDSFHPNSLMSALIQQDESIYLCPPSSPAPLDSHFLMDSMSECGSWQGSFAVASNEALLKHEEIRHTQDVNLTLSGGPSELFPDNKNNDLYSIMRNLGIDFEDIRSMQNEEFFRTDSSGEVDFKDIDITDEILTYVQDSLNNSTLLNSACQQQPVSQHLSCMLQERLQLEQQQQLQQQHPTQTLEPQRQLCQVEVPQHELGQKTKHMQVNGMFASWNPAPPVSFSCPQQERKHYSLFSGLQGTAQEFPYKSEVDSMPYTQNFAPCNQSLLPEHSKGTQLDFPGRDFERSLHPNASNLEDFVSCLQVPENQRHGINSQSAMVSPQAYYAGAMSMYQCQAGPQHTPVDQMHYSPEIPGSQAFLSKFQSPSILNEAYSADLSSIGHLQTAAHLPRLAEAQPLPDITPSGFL
From the text: The terminal of the “region of SEQ ID No: 3 amplified by PCR in Example 6” was phosphorylated with 5′-polynucleotide kinase (Takara Bio Inc.), and then, the regions of SEQ ID No: 3 were ligated in tandem with each other by using a ligation kit (Toyobo). The ligated DNA fragment was digested with restriction enzymes KpnI and NheI, and subjected to agarose gel electrophoresis. DNA fragment consisting of three copies of the regions of SEQ ID No: 3 linked in tandem and DNA fragment consisting of five copies of the regions of SEQ ID No: 3 linked in tandem were excised from the gel based on their molecular weight, and purified with a QIAQUICK Gel Extraction Kit. These DNA fragments were digested with KpnI and NheI, and incorporated into a vector pTHE100/Luc containing no region of SEQ ID No: 3, to prepare a recombinant vector pTHE100×3/Luc containing three tandem copies of the regions of SEQ ID No: 3, and a recombinant vector pTHE100×5/Luc containing five tandem copies of the regions of SEQ ID No: 3 (FIG. 7A). pTH100/Luc, pTHE100×3/Luc, and pTHE100×5/Luc were introduced into Neuro2a by a method similar to that in Example 3. The obtained cell was exposed to 10 nM TCDD, and then, the change in the expression amount of the reporter gene was examined (FIG. 7B).
Further, the transcriptional response to the TCDD concentration and the transcriptional response to dioxin congeners were evaluated by using the pTHE100×3/Luc. The transcriptional response to the TCDD concentration was determined by a method similar to that in Example 3, specifically, by incorporating the vector pTHE100×3/Luc into Neuro2a, exposing the obtained cell to 1 to 10,000 μM of TCDD, and measuring the change in the expression amount of the reporter gene. […] On the other hand, the transcriptional response to dioxin congeners was determined by a method similar to that in Example 3, specifically, by incorporating the vector pTHE100×3/Luc into Neuro2a, exposing the obtained cell to eight kinds of dioxin congeners including TCDD, and measuring the activity of these congeners on transcriptional regulation. […]

[2] = target: T2, SD-line rat AhR (Rattus norvegicus, UniProt P41738, Q794H); experiment: Reporter gene assay in Neuro2a with pTHE100×3/Luc and pcDNA4-rAhR; type: cell-based; settings: 1 to 10,000 pM TCDD
T2 construct: The SD-line rat AhR gene-coding region was amplified from the reverse-transcribed sample by means of PCR; V5-His (C-terminal tag of vector pcDNA4/V5-His B); expressed in transfected cells; host or cells: mouse neuroblastoma Neuro2a, transient transfection with LIPOFECTAMINE 2000
T2 sequence (P41738 10-853 Q794H): T1 sequence (P41738 10-853 Q794H)
From the text: In Example 8, the vector pTHE100×3/Luc (Example 7, FIG. 7A) was used as the vector containing a reporter gene, and Neuro2a was used as the cell.
In this Example, a combination of pcDNA4-rAhR (Example 1) containing the SD-line rat AhR gene and pcDNA4/V5-His/lacZ (Invitrogen), as well as a combination of PGV-mAhR (Example 1) containing the C57/BL6-line mouse AhR gene and pcDNA4/V5-His/lacZ were used as the vectors for introducing into the cell together with pTHE100×3/Luc. pcDNA4-rAhR was introduced into the cell for constitutive expression of the SD-line rat AhR (SEQ ID No: 10); PGV-mAhR was introduced into the cell for constitutive expression of C57/BL6-line mouse AhR (SEQ ID No: 11); and pcDNA4/V5-His/lacZ was introduced into the cell for normalization of the transfection efficiency of the vector.
The vectors were introduced into the cell by using LIPOFECTAMINE 2000, similarly to the method described in Example 3. After the above vectors were introduced into the cell, the obtained cell was exposed to 1 to 10,000 pM of TCDD to examine the increase in expression amount of the reporter gene in response to TCDD.

Clc1cc2c(cc1Cl)Oc1cc(Cl)c(Cl)cc1O2 [TCDD, 2,3,7,8-tetrachlorodibenzo-p-dioxine]
increase in the activity of the test substance on transcriptional regulation, by number of copies of SEQ ID No: 3 ([1]; 10 nM TCDD, pTH100/Luc, pTHE100×5/Luc): highest with the vector pTHE100×3/Luc | influence of dioxin congeners on transcriptional regulation ([1]; eight kinds of dioxin congeners tested): exerted influence on transcriptional regulation | expression amount of the reporter gene versus TCDD concentration ([1]; exposure 1 to 10,000 μM of TCDD (so in the source)): increased statistically significantly with the increase in TCDD concentration up to 10 μM | transcriptional response, rat AhR compared with mouse AhR [2]: transcriptional response greater than that of the C57/BL6-line mouse AhR | induction of transcription of the reporter gene in response to TCDD ([2]; SD-line rat AhR): effective in inducing transcription of the reporter gene
